Values quoted from earlier work in US20180008598A1, “ANTIBACTERIAL NASAL COMPOSITIONS AND RELATED METHODS” (Xlear, Inc., priority 2016, published 2018).

What was measured:
dental caries = settings: regular consumption
Streptococcus pneumonia = settings: in vitro, during its logarithmic growth phase

Structure (SMILES): OC[C@@H](O)[C@H](O)[C@@H](O)CO [Xylitol, xylitol]
- incidence of dental caries (dental caries): reduce the incidence of dental caries
- growth of Streptococcus pneumonia (Streptococcus pneumonia): inhibit the growth
